{
  "source": "paper PMC3017236",
  "about": "(Clinical cancer research : an official journal of the …, 2010)",
  "key": {"[1]": {"details": "mouse, in vivo"}, "Bcrp1/Abcg2 [2]": {"system": "Bcrp1/Abcg2", "details": "mouse, in vivo"}, "P-gp (Mdr1a/b)": {"system": "P-gp (Mdr1a/b)", "details": "mouse, in vivo, po, 50 mg/kg"}, "[3]": {"system": "P-gp (Mdr1a/b) and Bcrp1/Abcg2", "details": "mouse, in vivo"}, "Mrp4/Abcc4 [4]": {"system": "Mrp4/Abcc4", "experiment": "Brain microdialysis", "details": "Abcc4−/− mice, 50 mg/kg oral erlotinib, mean ± SD"}, "human ABCB1 (P-gp/MDR1)": {"molecular_target": "human ABCB1 (P-gp/MDR1) (Homo sapiens, UniProt P08183)", "sequence (P08183 whole entry)": "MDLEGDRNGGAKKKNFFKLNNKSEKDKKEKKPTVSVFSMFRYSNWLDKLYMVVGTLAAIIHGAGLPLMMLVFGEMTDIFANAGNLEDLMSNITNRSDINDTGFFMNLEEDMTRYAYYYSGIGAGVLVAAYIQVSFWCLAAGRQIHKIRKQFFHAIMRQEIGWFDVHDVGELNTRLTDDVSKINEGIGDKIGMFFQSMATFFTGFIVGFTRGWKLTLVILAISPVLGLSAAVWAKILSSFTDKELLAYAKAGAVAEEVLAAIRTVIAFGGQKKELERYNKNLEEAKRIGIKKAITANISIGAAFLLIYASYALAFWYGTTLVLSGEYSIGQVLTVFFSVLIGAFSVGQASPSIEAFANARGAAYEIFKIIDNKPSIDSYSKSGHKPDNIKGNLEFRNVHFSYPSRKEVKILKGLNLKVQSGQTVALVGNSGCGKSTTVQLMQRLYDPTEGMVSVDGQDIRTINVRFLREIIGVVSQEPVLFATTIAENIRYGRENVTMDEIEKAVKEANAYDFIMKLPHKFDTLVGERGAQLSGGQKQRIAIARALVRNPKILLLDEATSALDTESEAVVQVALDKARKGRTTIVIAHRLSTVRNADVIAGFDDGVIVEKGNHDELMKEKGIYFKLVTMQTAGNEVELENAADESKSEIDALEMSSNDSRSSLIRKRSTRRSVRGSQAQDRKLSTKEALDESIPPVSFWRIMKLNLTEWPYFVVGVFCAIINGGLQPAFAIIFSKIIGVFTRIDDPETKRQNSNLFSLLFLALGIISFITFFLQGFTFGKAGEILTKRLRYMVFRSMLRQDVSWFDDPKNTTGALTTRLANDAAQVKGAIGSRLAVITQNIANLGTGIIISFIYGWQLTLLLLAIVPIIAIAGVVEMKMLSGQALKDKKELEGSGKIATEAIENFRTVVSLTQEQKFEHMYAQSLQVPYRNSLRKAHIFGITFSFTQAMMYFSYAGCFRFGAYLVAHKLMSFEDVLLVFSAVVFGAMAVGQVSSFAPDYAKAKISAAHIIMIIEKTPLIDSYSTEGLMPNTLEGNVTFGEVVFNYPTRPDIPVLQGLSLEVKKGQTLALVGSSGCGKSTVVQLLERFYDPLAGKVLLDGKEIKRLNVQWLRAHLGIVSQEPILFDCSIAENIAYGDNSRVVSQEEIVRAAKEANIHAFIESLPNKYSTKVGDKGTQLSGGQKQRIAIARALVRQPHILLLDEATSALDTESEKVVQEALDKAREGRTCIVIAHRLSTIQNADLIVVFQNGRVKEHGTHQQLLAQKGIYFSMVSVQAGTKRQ", "experiment": "Intracellular accumulation in LLCPK1-MDR1 cells vs LLCPK1 cells"}, "human BCRP": {"molecular_target": "T1, human BCRP (Homo sapiens, UniProt Q9UNQ0)", "T1 sequence (Q9UNQ0 1-655)": "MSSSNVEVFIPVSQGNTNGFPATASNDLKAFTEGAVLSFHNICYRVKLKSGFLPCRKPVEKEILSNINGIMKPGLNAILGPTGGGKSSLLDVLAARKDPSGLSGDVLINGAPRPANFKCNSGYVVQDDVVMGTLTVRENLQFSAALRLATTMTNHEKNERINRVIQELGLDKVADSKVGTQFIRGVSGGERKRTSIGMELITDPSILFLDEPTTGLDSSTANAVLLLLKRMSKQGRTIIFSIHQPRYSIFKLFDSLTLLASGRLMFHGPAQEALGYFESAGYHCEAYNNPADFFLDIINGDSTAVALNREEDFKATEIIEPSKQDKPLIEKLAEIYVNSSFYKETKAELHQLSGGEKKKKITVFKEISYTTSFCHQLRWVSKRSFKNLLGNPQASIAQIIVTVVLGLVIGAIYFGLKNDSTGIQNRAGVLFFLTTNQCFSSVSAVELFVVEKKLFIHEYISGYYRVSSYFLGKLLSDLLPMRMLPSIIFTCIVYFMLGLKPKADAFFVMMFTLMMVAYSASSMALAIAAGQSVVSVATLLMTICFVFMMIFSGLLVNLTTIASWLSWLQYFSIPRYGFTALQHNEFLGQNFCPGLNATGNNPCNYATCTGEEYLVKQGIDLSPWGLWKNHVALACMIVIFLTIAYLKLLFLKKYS", "experiment": "Intracellular accumulation in Saos2-BCRP cells vs Saos2-pcDNA3.1", "details": "for Effect of elacridar on intracellular accumulation: Saos2-BCRP cells, pre-incubation 30 minutes with elacridar (4 μM); for Intracellular accumulation vs control cells: Saos2-BCRP vs Saos2-pcDNA3.1, 0.5 μg/mL, 37°C"}, "[5]": {"type": "in vivo, mouse", "details": "for Mean AUC0-24,Plasma compared to wild-type mice: mouse, in vivo, po, 50 mg/kg"}, "OAT2": {"molecular_target": "T2, OAT2 (Homo sapiens, UniProt Q9Y694)", "T2 sequence (Q9Y694 1-548)": "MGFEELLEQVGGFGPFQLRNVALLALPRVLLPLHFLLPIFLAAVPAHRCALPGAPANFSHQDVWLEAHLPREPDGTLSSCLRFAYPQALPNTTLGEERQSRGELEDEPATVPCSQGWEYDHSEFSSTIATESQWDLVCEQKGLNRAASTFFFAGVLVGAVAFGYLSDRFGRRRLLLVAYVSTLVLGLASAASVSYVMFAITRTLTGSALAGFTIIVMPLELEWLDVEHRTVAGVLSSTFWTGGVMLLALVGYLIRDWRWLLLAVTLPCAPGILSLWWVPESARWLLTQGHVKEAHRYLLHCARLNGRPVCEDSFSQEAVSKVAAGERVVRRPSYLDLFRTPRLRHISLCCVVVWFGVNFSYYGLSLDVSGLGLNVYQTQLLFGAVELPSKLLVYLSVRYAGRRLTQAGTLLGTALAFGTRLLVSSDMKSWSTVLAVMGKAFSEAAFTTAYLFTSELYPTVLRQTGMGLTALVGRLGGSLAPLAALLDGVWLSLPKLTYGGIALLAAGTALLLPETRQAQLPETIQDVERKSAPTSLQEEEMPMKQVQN", "experiment": "Uptake in HEK-293 cells transfected with OAT2 vs empty vector", "type": "in vitro ADME", "details": "HEK-293/OAT2"}, "OCT1": {"molecular_target": "T3, OCT1 (Homo sapiens, UniProt O15245)", "T3 sequence (O15245 1-554)": "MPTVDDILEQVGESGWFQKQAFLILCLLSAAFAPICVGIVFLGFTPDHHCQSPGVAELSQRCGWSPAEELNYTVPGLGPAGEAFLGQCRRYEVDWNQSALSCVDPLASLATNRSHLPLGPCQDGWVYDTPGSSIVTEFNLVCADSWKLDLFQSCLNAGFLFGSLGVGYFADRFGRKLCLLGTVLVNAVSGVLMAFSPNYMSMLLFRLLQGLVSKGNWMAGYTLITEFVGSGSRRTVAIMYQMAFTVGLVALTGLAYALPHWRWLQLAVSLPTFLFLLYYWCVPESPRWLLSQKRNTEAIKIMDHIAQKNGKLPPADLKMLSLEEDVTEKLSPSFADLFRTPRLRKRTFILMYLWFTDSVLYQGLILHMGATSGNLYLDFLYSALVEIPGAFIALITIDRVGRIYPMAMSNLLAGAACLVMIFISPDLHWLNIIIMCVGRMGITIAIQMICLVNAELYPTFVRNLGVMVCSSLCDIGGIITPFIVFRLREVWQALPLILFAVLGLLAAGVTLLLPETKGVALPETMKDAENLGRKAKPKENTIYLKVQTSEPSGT", "experiment": "Uptake in HEK-293 cells transfected with OCT1 vs empty vector", "type": "in vitro ADME", "details": "HEK-293/OCT1"}, "Bcrp1/Abcg2 [6]": {"system": "Bcrp1/Abcg2", "experiment": "in vivo", "details": "mouse, brain ECF (relative to unbound plasma), po, 50 mg/kg"}, "[7]": {"system": "P-gp (Mdr1a/b) and Bcrp1/Abcg2", "experiment": "in vivo", "details": "mouse, brain ECF (relative to unbound plasma), po, 50 mg/kg"}, "Mrp4/Abcc4 [8]": {"system": "Mrp4/Abcc4", "experiment": "in vivo", "details": "mouse, brain ECF (relative to unbound plasma), po, 50 mg/kg"}, "in vitro": {"experiment": "in vitro", "details": "mouse, plasma"}},
  "note": "“Also recorded” adds a separate entry of the source. Like-named read-outs stand apart in the source and are kept apart here.",
  "data": [
    {"compound": "C#Cc1cccc(Nc2ncnc3cc(OCCOC)c(OCCO)cc23)c1", "note": "[OSI-420]", "values": [
      {"measurement": "Penetration of unbound drug from plasma across the BBB", "setting": "[1]", "value": 7, "unit": "%"},
      {"measurement": "PBrain (brain ECF-to-unbound plasma AUC0-24 ratio)", "setting": "[1]; po, 50 mg/kg", "value": "0.07±0.02"},
      {"measurement": "Brain penetration relative to wild-type mice", "setting": "Bcrp1/Abcg2 [2]", "value": 7, "unit": "fold"},
      {"measurement": "PBrain (brain ECF-to-unbound plasma AUC0-24 ratio)", "setting": "P-gp (Mdr1a/b)", "value": "0.04±0.02"},
      {"measurement": "Brain penetration relative to wild-type mice", "setting": "[3]", "value": 4, "unit": "fold"},
      {"measurement": "PBrain (brain ECF-to-unbound plasma AUC0-24 ratio)", "setting": "Mrp4/Abcc4 [4]", "value": "0.08 ± 0.06"},
      {"measurement": "Effect of elacridar on intracellular accumulation", "setting": "human ABCB1 (P-gp/MDR1); LLCPK1-MDR1 cells, pre-incubation 30 minutes with elacridar (4 μM)", "value": "significantly increased"},
      {"measurement": "Intracellular accumulation vs control cells", "setting": "human ABCB1 (P-gp/MDR1); LLCPK1-MDR1 vs LLCPK1, 0.5 μg/mL, 37°C", "value": "lower accumulation; also recorded: significantly reduced"},
      {"measurement": "Effect of elacridar on intracellular accumulation", "setting": "human BCRP", "value": "significantly increased"},
      {"measurement": "Intracellular accumulation vs control cells", "setting": "human BCRP", "value": "significantly lower; also recorded: significantly reduced"}
    ]},
    {"compound": "C#Cc1cccc(Nc2ncnc3cc(OCCOC)c(OCCOC)cc23)c1", "note": "[erlotinib, Erlotinib]", "values": [
      {"measurement": "Mean AUC0-24,Plasma compared to wild-type mice", "setting": "[5]; Abcc4−/−", "value": 0.9, "unit": "fold"},
      {"measurement": "Mean AUC0-24,Plasma compared to wild-type mice", "setting": "[5]; Abcg2−/−", "value": 1.25, "unit": "fold"},
      {"measurement": "Mean AUC0-24,Plasma compared to wild-type mice", "setting": "[5]; Mdr1a/b−/−", "value": 0.9, "unit": "fold"},
      {"measurement": "Mean AUC0-24,Plasma compared to wild-type mice", "setting": "[5]; Mdr1a/b−/−Abcg2−/−", "value": 1.3, "unit": "fold"},
      {"measurement": "Tolerability of single dose", "setting": "[5]; single oral dose 50 mg/kg, all strains", "value": "tolerated well"},
      {"measurement": "Transport by transporter", "setting": "OAT2", "value": "not found to transport"},
      {"measurement": "Transport by transporter", "setting": "OCT1", "value": "not found to transport"},
      {"measurement": "Kp", "setting": "Bcrp1/Abcg2 [6]", "value": "1.4 ± 0.9"},
      {"measurement": "Kp", "setting": "[7]", "value": "0.7 ± 0.26"},
      {"measurement": "Kp", "setting": "Mrp4/Abcc4 [8]", "value": "0.32 ± 0.24"},
      {"measurement": "fraction unbound at 10 h", "setting": "in vitro", "value": 0.048},
      {"measurement": "Effect of elacridar on intracellular accumulation", "setting": "human BCRP", "value": "significantly increased"},
      {"measurement": "Intracellular accumulation vs control cells", "setting": "human BCRP", "value": "significantly lower; also recorded: significantly reduced"}
    ]}
  ]
}
